Assay results published in US20150065440A1 (Progen Pharmaceuticals Limited, priority 2007, published 2015).
Like-named read-outs stand apart in the source and are kept apart here.

Tests used:
GMK AH1 cells = assay: Cytotoxicity assay, GMK AH1; type: cell-based, African green monkey; conditions: cell viability reduced by 50%
Experimental: The assay was performed in GMK AH1 cells that had been seeded in 96 well cluster plates and reached approximately 80-90% confluence at day 2 of culture. The cells were washed with EMEM and incubated for 24 h at 37° C. with 100 μL of serial two-fold dilutions of the test compound in serum-free EMEM. The effect of the test compound on cell viability was measured by using the tetrazolium-based CellTiter96 assay according to the manufacturer's protocol (Promega, Madison, Wis., USA).

HSV-1 = assay: Viral plaque number-reduction assay, HSV-1
Experimental: (§1) African green monkey kidney (GMK AH1) cells^46 were cultured in Eagle's minimum essential medium (EMEM) supplemented with 2% calf serum, 0.05% Primaton RL substance (Kraft Inc., Norwich, USA) and antibiotics. Human epidermoid carcinoma (HEp-2) cells were cultured in Dulbecco's modified EMEM (DMEM) supplemented with 10% fetal calf serum and antibiotics. […] The RSV strain A-2^50 was used. The RSV stock was prepared as described by Hallak et al.^51 and stored at −70° C. in the presence of 40% sucrose^52.
(§2) The viral infectivity (the plaque number-reduction) assay and the plaque size-reduction assay were carried out as described previously^17. […] Subsequently, the cells were washed with 2 mL of EMEM and overlaid with 1% methylcellulose solution in EMEM. The plaques were visualized by staining with crystal violet solution after 2 (HSV-2) or 3 (HSV-1) days of incubation at 37° C. […] When the compounds were screened for anti-HSV or anti-RSV activity, mixtures of 200 PFU of the virus and the test compound (100 μg/mL) in serum-free EMEM were incubated for 10 min at room temperature before addition to cells and during the entire period of viral infection of cells and the development of viral plaques. In the plaque size-reduction assay, the compounds were added to cells (in methylcellulose overlay medium) after 2 h period of virus infection of cells in the absence of the inhibitor. After 2-3 days of incubation at 37° C., the viral plaques were visualized by staining the cells with 1% solution of crystal violet. For each compound tested, the images of twenty neighboring plaques were captured using a Leica DC300 digital camera attached to a Leitz-Wetzlar Diavert microscope. The area of each plaque was determined using IM500 image software (Leica). Similar protocols were used for RSV, except that the assays were performed in HEp-2 cells and DMEM supplemented with 2% heat-inactivated fetal calf serum was used instead of EMEM.

RSV = assay: Anti-RSV screening assay (viral plaques); type: cell-based; conditions: 100 μg/mL, viral plaques relative to mock treated controls
Experimental: as §1, §2

[1] = tested on: HUVEC proliferation induced by FGF-1; assay: Growth factor induced endothelial cell proliferation assay, FGF-1; type: cell-based, human; conditions: 72 h, read-out: FGF-1 (IC50) inhibition of HUVEC proliferation
Description: (§3) HUVEC cells were maintained and subcultured according to standard cell culture protocols essentially as described by Lonza. Briefly, cells were maintained in Lonza endothelial growth media (EGM) with recommended supplements and growth factors (VEGF, FGF2, EFG, IGF, hydrocortisone, fetal bovine serum (FBS), ascorbic acid, heparin and gentamicin). Cells were subcultured when they reached 70-80% confluence by trypsinisation and reseeding in fresh growth medium in new culture vessels at 2500 to 5000 cells/cm^2 of vessel surface area. Cell counts were performed using a haemocytometer and viable cells were visualized with trypan blue.
(§4) Medium for the proliferation studies was prepared using EGM with 2% FBS and gentamicin only. In a later study, complete EGM was used for the VEGF groups in an attempt to enhance the proliferative index of VEGF-stimulated groups. For the tube formation assay, complete medium was used with only heparin omitted. Compounds under investigation were weighed out from powder stocks and diluted in PBS to 10 mM stock solutions and stored at −80° C. For experiments, compounds were subsequently diluted in EBM-2 medium (supplemented with 2% FBS and gentamicin) to various working concentration as required.
(§5) In the first of a series of experiments, the assay was further optimized by examining the cell density and growth factor concentration required to induce maximal proliferation by growth factors. Briefly, 100 μL of cells was added to each well at concentrations between 1-3×10^3 per well. Growth factors and test compounds were then added in 50 μL volumes at specified concentrations to obtain a final volume of 200 μL. Following incubation for 70 h, 20 μL of the CellTitre 96® Aqueous One Solution Cell Proliferation Assay (Promega) was added for 2 h prior to reading the absorbance at 490 nm to obtain OD values.

[2] = tested on: HUVEC proliferation induced by VEGF; assay: Growth factor induced endothelial cell proliferation assay, VEGF; type: cell-based, human; conditions: 72 h, read-out: VEGF (IC50) inhibition of HUVEC proliferation
Description: as §3, §4, §5

[3] = tested on: HUVEC proliferation induced by FGF-2; assay: Growth factor induced endothelial cell proliferation assay, FGF-2; type: cell-based, human; conditions: 72 h, read-out: FGF-2 (IC50) inhibition of HUVEC proliferation
Description: as §3, §4, §5

HUVECs = assay: Matrigel microtubule formation assay; type: cell-based, human; conditions: for Microtubule Formation % inhibition at 10 μM: relative to controls
Experimental: as §4
The tube formation assay was performed essentially as described by Malinda et al., with modifications.^41 HUVECs in the fourth or fifth passage at 70-80% confluence were harvested and resuspended in Lonza endothelial growth medium (EGM2) containing all supplements as directed by manufacturer, except heparin, at a cell density of 4×10^5 cells per mL. For each set of triplicate wells, 200 μL of cells (4×10^5/mL) were treated with an equal volume of compound to obtain final concentrations of 10, 50 or 100 μM (thus ensuring 1×300 μL are available for each condition). A 100 μL aliquot of cells was then plated onto 96-well plates pre-coated with growth factor reduced Matrigel™ (50 μL for 30 min followed by a further 30 μL for 1 h) and incubated for 18-22 h. Tube formation was examined by phase-contrast microscopy and images were collected using an Olympus C5050 digital camera. Tube formation inhibition was quantitated manually from images by recording the total number of nodes connecting 3 or more tubules. Untreated HUVECs were used as a control for normal cell growth and tube formation in Matrigel.

Row | SMILES | IC50 [1] | IC50 [2] | IC50 [3] | Microtubule Formation % inhibition at 10 μM (HUVECs) | IC50 ([3]; Homo sapiens, HUVEC) | also measured
1 | CCCCCCCCCCCCOC1OC(COS(=O)(=O)O)C(OS(=O)(=O)O)C(OS(=O)(=O)O)C1OC1OC(COS(=O)(=O)O)C(OS(=O)(=O)O)C(OC2OC(COS(=O)(=O)O)C(OS(=O)(=O)O)C(OC3OC(COS(=O)(=O)O)C(OS(=O)(=O)O)C(OC4OC(COS(=O)(=O)O)C(OS(=O)(=O)O)C(OS(=O)(=O)O)C4OS(=O)(=O)O)C3OS(=O)(=O)O)C2OS(=O)(=O)O)C1OS(=O)(=O)O [Compound 4, Dodecyl 2,3,4,6-tetra-O-sodium sulfonato-α-D-mannopyranosyl-(1→3)-2,4,6-tri-O-sodium sulfonato-α-D-mannopyranosyl-(1→3)-2,4,6-tri-O-sodium sulfonato-α-D-mannopyranosyl-(1→3)-2,4,6-tri-O-sodium sulfonato-α-D-mannopyranosyl-(1→2)-3,4,6-tri-O-sodium sulfonato-α-D-mannopyranoside] |  |  |  |  |  | Cytotoxicity CC50 GMK AH1 (GMK AH1 cells): >400 µg/mL; Selective index CC50/IC50 HSV-1 (HSV-1; GMK AH1 cells): > 190; Residual infectivity (%) RSV (RSV): 0%
2 | CC(C)CCC[C@@H](C)[C@H]1CC[C@H]2[C@@H]3CCC4CC(O[C@H]5O[C@H](COS(=O)(=O)[O-])[C@@H](OS(=O)(=O)[O-])[C@H](O[C@H]6O[C@H](COS(=O)(=O)[O-])[C@@H](OS(=O)(=O)[O-])[C@H](O[C@H]7O[C@H](COS(=O)(=O)[O-])[C@@H](OS(=O)(=O)[O-])[C@H](OS(=O)(=O)[O-])[C@@H]7OS(=O)(=O)[O-])[C@@H]6OS(=O)(=O)[O-])[C@@H]5OS(=O)(=O)[O-])CC[C@]4(C)[C@H]3CC[C@]12C.[Na+].[Na+].[Na+].[Na+].[Na+].[Na+].[Na+].[Na+].[Na+].[Na+] (stereo partly drawn) [Compound 56, 3′-Cholestanyl 2,3,4,6-tetra-O-sodium sulfonato-α-D-mannopyranosyl-(1→3)-2,4,6-tri-O-sodium sulfonato-α-D-mannopyranosyl-(1→3)-3,4,6-tri-O-sodium sulfonato-α-D-mannopyranoside] | 2520 nM | 1720 nM | 1800 nM | 67% |  | 
3 | CC(C)CCC[C@@H](C)[C@H]1CC[C@H]2[C@@H]3CCC4C[C@@H](OCc5cn(CCCO[C@H]6O[C@H](COS(=O)(=O)[O-])[C@@H](OS(=O)(=O)[O-])[C@H](O[C@H]7O[C@H](COS(=O)(=O)[O-])[C@@H](OS(=O)(=O)[O-])[C@H](O[C@H]8O[C@H](COS(=O)(=O)[O-])[C@@H](OS(=O)(=O)[O-])[C@H](OS(=O)(=O)[O-])[C@@H]8OS(=O)(=O)[O-])[C@@H]7OS(=O)(=O)[O-])[C@@H]6OS(=O)(=O)[O-])nn5)CC[C@]4(C)[C@H]3CC[C@]12C.[Na+].[Na+].[Na+].[Na+].[Na+].[Na+].[Na+].[Na+].[Na+].[Na+] (stereo partly drawn) [Compound 60, 3-{4-(Cholestan-3β-yl-oxymethyl)-[1,2,3]triazol-1-yl}propyl 2,3,4,6-tetra-O-sodium sulfonato-α-D-mannopyranosyl-(1→3)-2,4,6-tri-O-sodium sulfonato-α-D-mannopyranosyl-(1→3)-3,4,6-tri-O-sodium sulfonato-α-D-mannopyranoside] | 2610 nM | 1440 nM | 1220 nM | 49% |  | 
4 | CC(C)CCC[C@@H](C)[C@H]1CC[C@H]2[C@@H]3CCC4CC(OCc5cn([C@@H]6O[C@H](COS(=O)(=O)[O-])[C@@H](O[C@H]7O[C@H](COS(=O)(=O)[O-])[C@@H](O[C@H]8O[C@H](COS(=O)(=O)[O-])[C@@H](OS(=O)(=O)[O-])[C@H](OS(=O)(=O)[O-])[C@H]8OS(=O)(=O)[O-])[C@H](OS(=O)(=O)[O-])[C@H]7OS(=O)(=O)[O-])[C@H](OS(=O)(=O)[O-])[C@H]6OS(=O)(=O)[O-])nn5)CC[C@]4(C)[C@H]3CC[C@]12C.[Na+].[Na+].[Na+].[Na+].[Na+].[Na+].[Na+].[Na+].[Na+].[Na+] (stereo partly drawn) [Compound 70, 4-(Cholestan-3-yl-oxymethyl)[1,2,3]triazol-1-yl 2,3,4,6-tetra-O-sodium sulfonato-α-D-glucopyranosyl-(1→4)-2,3,6-tri-O-sodium sulfonato-α-D-glucopyranosyl-(1→4)-1-deoxy-2,3,6-tri-O-sodium sulfonato-β-D-glucopyranoside] | 2300 nM | 2200 nM | 640 nM | 52% |  | HSV-1 KOS321 strain IC50 (HSV-1; plaques in GMK AH1 cells (Table 9, footnote b)): 0.25 µg/mL
5 | CCCCCCCCCCCCCCCCCC(=O)NCCCO[C@@H]1O[C@H](COS(=O)(=O)[O-])[C@@H](O[C@H]2O[C@H](COS(=O)(=O)[O-])[C@@H](O[C@H]3O[C@H](COS(=O)(=O)[O-])[C@@H](O[C@H]4O[C@H](COS(=O)(=O)[O-])[C@@H](OS(=O)(=O)[O-])[C@H](OS(=O)(=O)[O-])[C@H]4OS(=O)(=O)[O-])[C@H](OS(=O)(=O)[O-])[C@H]3OS(=O)(=O)[O-])[C@H](OS(=O)(=O)[O-])[C@H]2OS(=O)(=O)[O-])[C@H](OS(=O)(=O)[O-])[C@H]1OS(=O)(=O)[O-].[Na+].[Na+].[Na+].[Na+].[Na+].[Na+].[Na+].[Na+].[Na+].[Na+].[Na+].[Na+].[Na+] [Compound 128, 3-Stearamidopropyl 2,3,4,6-tetra-O-sulfo-α-D-glucopyranosyl-(1→4)-2,3,6-tri-O-sulfo-α-D-glucopyranosyl-(1→4)-2,3,6-tri-O-sulfo-α-D-glucopyranosyl-(1→4)-2,3,6-tri-O-sulfo-β-D-glucopyranoside, tridecasodium salt] |  |  |  |  | 770 nM | 
6 | CC(C)CCC[C@@H](C)[C@H]1CC[C@H]2[C@@H]3CC[C@H]4C[C@@H](O[C@H]5O[C@H](COS(=O)(=O)O)[C@@H](OS(=O)(=O)O)[C@H](OS(=O)(=O)O)[C@@H]5O[C@H]5O[C@H](COS(=O)(=O)O)[C@@H](OS(=O)(=O)O)[C@H](OS(=O)(=O)O)[C@@H]5OS(=O)(=O)O)CC[C@]4(C)[C@H]3CC[C@]12C [Compound 33, 3β-Cholestanyl 2,3,4,6-tetra-O-sodium sulfonato-α-D-mannopyranosyl-(1→2)-3,4,6-tri-O-sodium sulfonato-α-D-mannopyranoside] |  |  |  |  | 2220 nM | IC50 ([1]; Homo sapiens, HUVEC): > 10000 nM; IC50 ([2]; Homo sapiens, HUVEC): 1850 nM; inhibition at 10 µM (HUVECs; Homo sapiens, HUVEC, read-out: Microtubule Formation % inhibition at 10 μM): 14%
